Experimental data reported in patent publication US10875861B1, “Therapeutic compounds” (Rutgers, The State University of New Jersey, priority 2017, dated 2020).
Counter-ions that a name gives are not always drawn.

Assays:
BMI-1 and αENaC mRNA = test: mRNA expression of BMI-1 and αENaC on concomitant treatment with cyclohexamide; assay type: cell-based; conditions: RU-A15 100 nM, RU-A16 200 nM, concomitant with CHX
Experimental: Next, to test if Examples 3 and 4 are selective for BMI-1 RNA, cells were concomitantly treated with RU-A15/16 (100 nM, 200 nM, respectively) and cyclohexamide (CHX), a general translational inhibitor, and analyzed mRNA expression of BMI-1 and the CHX-specific target epithelial sodium channel (αENaC).

[1] = tested on: BMI-1 and ubiquitinated histone H2A in primary glioblastoma cells; test: Modulation / dynamics of BMI-1 and downstream targets in GBM cells (Western blotting); assay type: cell-based, human
Experimental: Different GBM cells were treated with DMSO or different concentrations of the B compounds for 72 hours. Cells were lysed in Cell Lysis Buffer (Cell Signaling, #9803) supplemented with Protease Inhibitor Cocktail (Sigma, #P8340), spun down for 30 minutes at 4° C., after which the supernatant was collected at every time point indicated. Western blotting analysis was performed on all samples as described above. BMI-1 loss started at 6-12 h, coinciding with an upper shift and hyper-phosphorylation of BMI-1 at 12-24 h and complete depletion at 72 h.
To study the compound dynamic activity against GBM spheres, GBMs were tested with exemplary compounds. Different GBM cells were treated with DMSO or different concentrations of the inhibitors for 72 hours. Cells were lysed in Cell Lysis Buffer (Cell Signaling, #9803) supplemented with Protease Inhibitor Cocktail (Sigma, #P8340), spun down for 30 minutes at 4° C., after which the supernatant was collected at every time point indicated. Western blotting analysis was performed on all samples as described above. […] BMI-1 loss started at 6-12 h, coinciding with an upper shift and hyper-phosphorylation of BMI-1 at 12-24 h and complete depletion at 72 h. […] This is expected since BMI-1 is known to suppress p21. BMI-1 inhibition could be reversed using phosphatase treatment, moreover, when proteasomal inhibitor is added to treated cells after 24 h, BMI-1 is locked in the phosphorylated state, therefore showing that the phosphorylation event precedes BMI-1 degradation. The phosphorylation was independent of p38 kinase activation, as when we added […], the p38 inhibitor to the cultured cells upon treatment with the BMI-1 inhibitor, the combined treatment could not reverse the effects of RU-A15 on BMI-1 inhibition.

BMI-1 5'UTR = test: Luciferase plasmid containing the BMI-1 5'UTR with or without binding pocket; assay type: cell-based
Experimental: Since translation initiation is dependent on RNA folding, the 3D folding of the BMI-1 5′UTR was examined. To identify sequences that fold into a target minimum and maximum free energy (MFE) secondary structure, inverse RNA folding of the BMI-1 5′UTR was performed using the mFold server. A highly probable, probability annotated group of secondary structures were identified, starting with the MFE, centroid energy structures and including fourteen other probabilities. […] In a luciferase plasmid containing the BMI-1 5′UTR, the sequences of the pocket region that contains the potential binding site was removed by cutting with compatible restriction enzymes and re-ligating the plasmid. The luciferase activity was examined with the luc plasmids or without the binding pocket upon treatment with the inhibitors. […] Thus, RU-A15/A16 engages with the BMI-1 UTR regulatory mechanisms.

[2] = tested on: glioblastoma cancer cell line; test: MTT viability assay with glioblastoma cancer cell line (Test A); assay type: cell-based, human; conditions: for EC50: Homo sapiens, 72 hours
Text: To generate primary patient-derived GBM models for testing small molecule inhibitors, fresh primary tissues were received from patients undergoing surgical resection of WHO grade IV gliomas at Robert Wood Johnson University Hospital (RWJUH) under an approved IRB protocol. De-identified primary human GBM samples were delivered to the laboratory. Cells were obtained through mechanical dissociation of the tumor tissue using a blade and plated in DMEM/F12 medium (Gibco) in the presence of B-27 Supplement (Gibco, #17504-044), 20 ng/ml of human recombinant EGF (Gibco, #PHG0311L) and human recombinant FGF (Peprotech, #AF-100-18B). The following day, the culture was collected, incubated with Accutase (Gibco, #A11105-01) at 37° C. and passed through a 26G×⅜ needle (BD Precision Glide, #305110) to obtain a single cell suspension and re-plated in the same supplemented medium. Cells were cultured at low (5-6) passages in serum-free sphere 3D culture with mitogens that preserve the clonogenic stemness phenotype. […] different primary GBM cells (GBM #46, GBM #50, and GBM #76) were tested for cell viability after treatment with the inhibitors. Cell viability was measured using MTT assay. Briefly, one thousand cells per well were seeded in 96-well plates and exposed to drug in a total of 200 uL media. After 72 hours, 50 uL of stock concentration of 2.5 mg/mL 3-(4,5-dimethylthiazol-2-yl)-2,5-diphenyltetrazolium bromide (MTT) (Sigma, #M2128) dissolved in PBS was added to wells and incubated at 37° C. for 4 hours; read in a […] plate reader at 570 nm and compared to DMSO and untreated cells. The IC50 (defined as the concentration at which 50% of the cells were viable) was determined from the curve.
Accordingly, compounds of the invention may be useful as therapeutic agents for the treatment of cancer.
To generate primary patient-derived GBM models for testing small molecule inhibitors, fresh primary tissues were received from patients undergoing surgical resection of WHO grade IV gliomas at Robert Wood Johnson University Hospital (RWJUH) under an approved RB protocol. De-identified primary human GBM samples were delivered to the laboratory. Cells were obtained through mechanical dissociation of the tumor tissue using a blade and plated in DMEM/F12 medium (Gibco) in the presence of B-27 Supplement (Gibco, #17504-044), 20 ng/ml of human recombinant EGF (Gibco, #PHG0311L) and human recombinant FGF (Peprotech, #AF-100-18B). […] Cell viability was measured using MTT assay. […] After 72 hours, 50 uL of stock concentration of 2.5 mg/mL 3-(4,5-dimethylthiazol-2-yl)-2,5-diphenyltetrazolium bromide (MTT) (Sigma, #M2128) dissolved in PBS was added to wells and incubated at 37° C. for 4 hours; read in a […] plate reader at 570 nm and compared to DMSO and untreated cells. […]

U87 glioblastoma cells = test: Comparison of Example 3 and PTC-209 in U87 glioblastoma cells (cell viability); assay type: cell-based; conditions: 72 hours
Text: BMI-1 inhibitors were developed by the Molecular Design and Synthesis laboratory, Rutgers Translational Sciences at Rutgers University, NJ, USA. […] (Generic name is PTC-209) was characterized among a screen for post-transcriptional inhibitors of BMI-1. Zebrafish embryo toxicology assays were used to select RU-A compounds with no embryonic toxicity in vivo (a surrogate assay for toxic effects on normal stem cells). […] Cells were counted using Beckman Coulter Vi-CELL Cell Viability Analyzer, and cell viability was confirmed by CellTiter-Glo Luminescent Cell Viability Assay (Promega, Madison, Wis., USA) according to standard protocols and analyzed with a Victor 2 plate reader (Wallac, Turku, Finland).

[3] = primary glioblastoma cells, Western blotting

Q: What does the source list for C[C@@H]1C[C@@H]([C@H](O)CC2CC(=O)NC(=O)C2)C(=O)[C@@H](C)C1 [CHX, cyclohexamide, reference compound]?
A: BMI-1 mRNA expression (BMI-1 and αENaC mRNA): lowered mRNA levels; αENaC mRNA expression (BMI-1 and αENaC mRNA): lowered mRNA levels

Q: For Cc1nc2ccccn2c1-c1csc(Nc2ccc3c(c2)OCO3)n1 [Example 4, N-(benzo[d][1,3]dioxol-5-yl)-4-(2-methylimidazo[1,2-a]pyridin-3-yl)thiazol-2-amine hydrobromide], which “CDK inhibitor p21” value ([1]; GBM#46 and #50) is on record?
A: The value was “induced upregulation of the CDK inhibitor p21”.

Q: And the BMI-1 protein levels [1, 3]?
A: Its BMI-1 protein levels is “inhibit BMI-1”.

Q: What about the “WT p53 levels” value [1, 3] of the same compound?
A: Its value is “increase WT p53 levels”.

Q: What about the “ubiquitin H2A” value [1, 3] of the same compound?
A: Its value is “inhibit ubiquitin H2A”.

Q: And the “normalized luc, BMI-1 5'UTR with intact binding pocket” value (BMI-1 5'UTR; intact minor groove potential binding pocket)?
A: Its value is “significantly reduced normalized luc”.

Q: And the “normalized luc, binding pocket sequences removed” value (BMI-1 5'UTR; pocket sequences removed)?
A: Its value is “not when the pocket sequences were removed”.

Q: And the “BMI-1 mRNA expression” value (BMI-1 and αENaC mRNA)?
A: The value was “did not inhibit”.

Q: What about the “αENaC mRNA expression” value (BMI-1 and αENaC mRNA) of the same compound?
A: The value was “did not inhibit”.

Q: What does the source list for Cc1c(-c2csc(Nc3ccc(N(C)C)cc3)n2)nc2ncccn12 [Example B2, N^1,N^1-dimethyl-N^4-(4-(3-methylimidazo[1,2-a]pyrimidin-2-yl)thiazol-2-yl)benzene-1,4-diamine]?
A: EC50 [2]: 1 µM; modulation of ubiquitinated histone H2A (Test B) ([1]; GBM cells, B compounds, 72 hours): modulation of downstream target ubiquitinated histone H2A

Q: How did the EC50 [2] turn out when COc1ccc(Nc2nc(-c3nc4ccccn4c3C)cs2)cc1 [Example B3, N-(4-methoxyphenyl)-4-(3-methylimidazo[1,2-a]pyridin-2-yl)thiazol-2-amine] was run?
A: Its EC50 is 20 µM.

Q: Which EC80 ([2]; cell marked (EC80) in the EC50 column) does the source give for Cc1c(-c2csc(Nc3ccc(N(C)C)cc3)n2)nc2ccccn12 [Example B4, N^1,N^1-dimethyl-N^4-(4-(3-methylimidazo[1,2-a]pyridin-2-yl)thiazol-2-yl)benzene-1,4-diamine] here?
A: The EC80 was 20 (EC80) μM.

Q: How did the IC50 (U87 glioblastoma cells) turn out when COc1cc(Br)c(Nc2nc(-c3c(C)nc4ncccn34)cs2)c(Br)c1 [PTC-209, reference compound] was run?
A: Its IC50 is 10 µM.
